Earlier results on 1 molecule are cited in patent US20240374528A1, “[…] DOSAGE FORMS COMPRISING DEUTETRABENAZINE” (AUSPEX PHARMACEUTICALS, INC., priority 2021, published 2024).

For the series the following is noted: relative to tetrabenazine; U.S. Pat. No. 8,524,733.

On to `[2H]C([2H])([2H])Oc1cc2c(cc1OC([2H])([2H])[2H])[C@H]1CC(=O)[C@H](CC(C)C)CN1CC2` [Deutetrabenazine, (RR,SS)-1,3,4,6,7,11b-hexahydro-9,10-di(methoxy-D3)-3-(2-methylpropyl)-2H-benzo[a]quinolizin-2-one], for which the “half-life of active metabolites” value is “increased half-life of its active metabolites”.
